{"source": "patent US8858995B2", "about": "“Methods and compositions for controlled delivery of phytochemical agents” (priority 2008, dated 2014)", "key": {"[1]": {"assay": "Safety and biocompatibility of curcumin implants", "assay_type": "in vivo", "conditions": "curcumin doses administered by the implants; at least 3 months", "excerpt": "As such, the further study was designed in continuation to above-described experiments (i) to analyze the in vivo release from these implants, (ii) to compare the tissue distribution of curcumin delivered via these implants with curcumin delivered via diet, and finally (iii) to compare the efficacy of curcumin delivered via both routes."}, "[2]": {"assay": "Plasma, liver and brain curcumin levels, implants versus diet (HPLC-fluorescence)", "assay_type": "in vivo, ACI rats", "conditions": "for plasma curcumin level: curcumin diet", "excerpt": "(§1) The in vivo cumulative release was studied in female Augustus Copenhagen Irish (ACI) rats following an approved protocol from an Institutional Animal Care and Use Committee (IACUC). […] All the animals were provided food and water ad libitum. Sham and curcumin implants were subcutaneously grafted at the back of the rats and were monitored for their diet intake and body weight. Animals were euthanized at different time intervals by asphyxiation to collect blood, liver, brain, local tissues and implants. All the tissues were snap frozen in liquid nitrogen and stored at −80° C. until further analysis.\nPlasma pooled from all the animals (1.5 ml) was mixed with […] of 0.5 M sodium acetate to reduce the pH to 5. Plasma was then extracted three times with 3 ml ethyl acetate. Ethyl acetate extracts were pooled and dried under vacuum. The dried residue was reconstituted in 100 μl of acetonitrile, and one-half of the solution was analyzed by HPLC. Similarly, liver or brain tissue (approximately 500 mg) from each animal was homogenized in 3 ml PBS (pH 7.4) containing 200 μl sodium acetate (0.5 M). The homogenate was then extracted twice with two volumes of ethyl acetate. After evaporation of ethyl acetate under vacuum, the residue was reconstituted in 1 ml acetonitrile. The solution was filtered through 0.45 μm glass-microfiber filter and evaporated again under vacuum. The residue was finally reconstituted in 100 μl acetonitrile, and one-half of it was analyzed by HPLC using a Shimadzu liquid chromatography system equipped with LC-10ADVP pump, RF-10AXL fluorescence detector and a Shimadzu C18 column of 5 μm particles (250×4.6 mm). The three curcuminoids were separated by using acetonitrile and 1% citric acid (adjusted to pH 2.5) at a flow rate of 1 ml/min with a gradient elution in which acetonitrile concentration was increased from 0% to 30% in first 5 min, followed by an increase to 45% in next 5-20 min. Acetonitrile was then maintained at this ratio till 36 min. Curcuminoids were detected using 410 and 500 nm as excitation and emission maxima, respectively, in the fluorescence detector."}, "[3]": {"assay": "Toxicity of coated implants (body weight, hematology, liver and kidney function)", "assay_type": "in vivo, A/J mice", "method": "To assess the toxicity of the implants, blood was collected separately at the time of euthanasia and hematological parameters were analyzed using whole blood by Cell Dyn 3500 hematology analyzer (Abbott laboratories, Santa Clara, Calif.). Serum was used to analyze the liver and kidney function test. An ion selective electrode was used for various electrolytes analysis and in-built spectrophotometric techniques were used for all other biochemical parameters analysis on automated AU640 Chemistry analyzed (Beckman Coulter, Inc., Brea, Calif.)."}, "CYP3A4": {"test_system": "CYP3A4", "assay": "CYP3A4 activity in hepatic microsomes", "assay_type": "in vivo, ACI rats", "method": "To evaluate the xenobiotic-metabolizing enzymes, liver samples from the animals (approximately 100 mg) were homogenized in 0.25 M sucrose buffer (pH 7.4) at 3000 rpm with Polytron. The homogenate was centrifuged at 3000 g for 20 min at 4° C. to separate the nuclear content, and the supernatant was then collected and again centrifuged at 11,000 g for 20 min at 4° C. to separate the mitochondria. The post-mitochondrial supernatant was then transferred to ultracentrifuge tubes and finally centrifuged at 100,000 g for 1 h at 4° C. to separate the microsomes. The pellet was suspended in 1 ml sucrose buffer, aliquoted and stored at −80° C. until use."}, "[4]": {"assay": "In vitro release from coated (and extruded) polymeric implants", "assay_type": "physicochemical", "conditions": "37° C., no serum", "method": "To formulate the “coated” polymeric implants, blank P-80 implants (1.4 mm dia) were then prepared by dissolving P-80:F68 (9:1) in dichloromethane, followed by evaporation of the solvent in a Petri dish under hood and extrusion of the molten polymer through a silastic tubing mold, similar to the methodologies described herein above. […] For coating, one end of the blank implant (2.5-3.5 cm) was inserted into a silastic tube plug (6 mm long, 1.4 mm dia) while the other end of the plug was attached with a pipet tip. Coatings were then added by dipping the blank implant into the solution with intermittent drying with cool air using a commercial hair dryer and placing them under hood. […] The assembly was placed under hood overnight to remove the residual DCM, implants were excised in 1 or 2 cm lengths and stored in amber vials under argon at -20° C. until used. The rate of in vitro release for the implants was subsequently measured. […] The vials were placed in a water bath (Julabo S W 23, Seelback, Germany) at 37° C. with constant agitation at 110 rpm. The medium was changed every 24 h."}, "[5]": {"assay": "In vivo release of curcumin from PCL-121K:PEG-8K implants (residual content)", "design": "species or system ACI rats", "excerpt": "as §1\nInitial and residual curcumin content in the implants was also analyzed to determine the cumulative drug release. Implants recovered from animals were dissolved in 5 ml dichloromethane. […] The solution was then diluted suitably (400-fold) with ethanol.\nwhere T1, T2, T3, . . . Tn are different time intervals."}, "[6]": {"conditions": "mouse, sc", "method": "To assess the coated implants (i.e., where the compositions were in the form of coatings), in vivo studies were also performed. […] All groups of animals were also treated with dibenzo[a,I]pyrene (DBP) via polymeric implants (1-cm, 1.4 mm dia, 5% DBP load) at the same time. Implants were grafted subcutaneously, and animal were euthanized after 3 weeks. […] In both cases, animals were euthanized by CO2 asphyxiation and selected tissues (lung, liver and brain) were collected and stored at −80° C. until processing. Implants were also recovered, dried under vacuum and stored in amber vials under argon at 4° C. until analysis.\nThe supernatants were diluted with ethanol:DCM (80:20) and their concentrations were measured spectrophotometrically at maximal absorbance and the concentrations were calculated against standard curves of individual compounds."}, "[7]": {"conditions": "female, ACI (Augustus Copenhagen Irish), rat, plasma, oral, 1000 ppm in diet"}}, "note": "Several values for one entry are separate records, joined by “and”; a condition that tells them apart may be missing. Equal entries are not always repeated."}
{"smiles": "COc1cc(/C=C/C(=O)CC(=O)/C=C/c2ccc(O)c(OC)c2)ccc1O", "note": "[curcumin]", "values": [{"measurement": "liver and kidney function", "setting": "[1]", "value": "did not induce any biochemical changes in liver and kidney function"}, {"measurement": "liver curcumin level", "setting": "[2]; both routes (implants, diet), day 1", "value": "25 to 30", "unit": "ng"}, {"measurement": "liver curcumin level", "setting": "[2]; both routes, after 12 days", "value": "10 to 15", "unit": "ng"}, {"measurement": "plasma curcumin level", "setting": "[2]; 25 and 90 days", "value": "undetectable"}, {"measurement": "plasma curcumin level", "setting": "[2]; day 1", "value": "not observed"}, {"measurement": "brain curcumin level", "setting": "[2]; dietary administration 1000 ppm, all the time points", "value": "2 to 3", "unit": "ng/g"}, {"measurement": "concentration at 1 day", "setting": "[2]; female, ACI (Augustus Copenhagen Irish), rat, brain, subcutaneous, 2 2-cm curcumin implants, implant route, day 1", "value": "30 ± 7.3", "unit": "ng/g"}, {"measurement": "Kp", "setting": "[2]; female, ACI (Augustus Copenhagen Irish), rat, liver (against plasma), other: both routes (subcutaneous implants, diet), via both routes", "value": "10 to 20"}, {"measurement": "concentration at 4 day", "setting": "[2]; [7]", "value": "0.3 ng/mL and 0.815 nM"}, {"measurement": "concentration at 12 days", "setting": "[2]; [7]", "value": "0.543 nM and 0.2 ng/mL"}, {"measurement": "concentration at 3 months", "setting": "[2]; female, ACI (Augustus Copenhagen Irish), rat, plasma, subcutaneous, 2 2-cm curcumin implants, implants, after 3 months", "value": "~0.2 ng/mL and 0.543 nM"}, {"measurement": "concentration at 1 day", "setting": "[2]; female, ACI (Augustus Copenhagen Irish), rat, plasma, subcutaneous, 2 2-cm curcumin implants, implants, day 1", "value": 9, "unit": "nM"}, {"measurement": "concentration at 4 day", "setting": "[2]; female, ACI (Augustus Copenhagen Irish), rat, plasma, subcutaneous, 2 2-cm curcumin implants, implants, day 4", "value": "1.4 ng/mL and 4 nM"}, {"measurement": "concentration at 1 day", "setting": "[2]; female, ACI (Augustus Copenhagen Irish), rat, subcutaneous, 2 2-cm curcumin implants, implants (two 2-cm), day 1, pooled plasma", "value": 3.3, "unit": "ng/mL"}, {"measurement": "brain curcumin level", "setting": "[2]; implant route, after 12 days, same levels after 90 days", "value": "around 7.26±2.45 ng/g tissue"}, {"measurement": "curcumin concentration in brain tissue, implant route higher than diet", "setting": "[2]; rat, in vivo", "value": "approximately 3.5 fold"}, {"measurement": "plasma and liver concentrations observed in the in vivo study", "setting": "[2]; rat, in vivo", "value": "78 to 95", "unit": "nM"}, {"measurement": "hematological parameters, liver enzymes, biochemical parameters of kidney function versus sham implant", "setting": "[3]; 3 weeks after grafting", "value": "No significant differences"}, {"measurement": "body weight", "setting": "[3]; s.c. polymeric implants", "value": "no effect on the body weight"}, {"measurement": "CYP3A4 activity", "setting": "CYP3A4; curcumin diet, 12 days", "value": "reduced to basal levels"}, {"measurement": "CYP3A4 activity compared to untreated animals", "setting": "CYP3A4; curcumin diet, after 4 days", "value": "significant higher"}, {"measurement": "CYP3A4 activity", "setting": "CYP3A4; curcumin diet, day 1", "value": "slightly higher activity"}, {"measurement": "increase in CYP3A4 activity compared with sham implants", "setting": "CYP3A4; curcumin implants", "value": "became significant only after 25 days"}, {"measurement": "CYP3A4 activity", "setting": "CYP3A4; curcumin implants, after 3 months", "value": "remained consistently upregualated"}, {"measurement": "release in PBS alone", "setting": "[4]", "value": "essentially no release"}, {"measurement": "in vivo burst release on day 1", "setting": "[5]; 2-cm implant, 40 mg, s.c.", "value": "approximately 1800 μg"}, {"measurement": "curcumin released after 1 day of implantation", "setting": "[5]; from weight loss studies", "value": 1.8, "unit": "mg"}, {"measurement": "curcumin delivered by both the implants combined", "setting": "[5]; over 90 days, versus around 900 mg by diet", "value": 38, "unit": "mg"}, {"measurement": "cumulative in vivo release after 1 month", "setting": "[5]; rat, in vivo", "value": "approximately 30%"}, {"measurement": "in vivo drug release after 3 months", "setting": "[5]; rat, in vivo", "value": "approximately 130 μg/day"}, {"measurement": "in vivo drug release over a period of 1 month", "setting": "[5]; rat, in vivo", "value": "300 to 350", "unit": "µg/day"}, {"measurement": "in vivo release on day 4", "setting": "[5]; rat, in vivo", "value": "approximately 380 μg"}, {"measurement": "total release in vivo at the end of 3 weeks", "setting": "[6]", "value": 19.9, "unit": "%"}]}
